From patent US9018216B2, “Solid forms of (R)-2-(5-(2-(3-ethylureido)-6-fluoro-7-(tetrahydrofuran-2-yl)-1H-benzo[d]imidazol-5-yl)pyrimidin-2-yl)propan-2-yl dihydrogen phosphate and salts thereof” (priority 2012, dated 2015)
In brackets after ≈: the same amount, converted by molar mass. Counter-ions that a name gives are not always drawn. Like-named read-outs stand apart in the source and are kept apart here.

What was measured:
[1] = Oral range finding toxicity and toxicokinetic study in male Cynomolgus monkeys; format: in vivo, Cynomolgus monkeys (Macaca Fascicularis)
Source text: Cynomolgus monkeys (Macaca Fascicularis) were obtained from Primus Bio-Resources Inc. of PinCourt, Quebec, Canada. Cynomolgus monkeys were chosen because they are a non-rodent species that is commonly used for nonclinical toxicity evaluations.
Eight (2 naive and 6 non-naïve) males were used in the study. The animals were young adults and weighed between 2 to 4 kg at the onset of dosing.
The first day of dosing was designated as Day 1 of the study. The actual volume administered to each animal was calculated and adjusted based on the most recent body weight of each animal.
Cage-side clinical signs (ill health, behavioral changes etc.) were recorded at least once daily during the study.
Body weights were recorded for all animals prior to group assignment and on Days 1 (prior to dosing), 3 and 7 as well as terminally prior to necropsy (fasted).
Electrocardiograms (bipolar limb leads I, II and III, and augmented unipolar leads aVR, aVL and aVF) were obtained for all monkeys once during the pre-treatment period and again on Day 7 (post-dosing).
The tracings were assessed for gross changes indicative of cardiac electrical dysfunction. The potential presence of abnormalities involving heart rate (lead II), sinus and atrioventricular rhythm or conductivity were determined. Heart rate, PR interval, QRS duration, QT and QTc intervals values were measured.
A series of 7 blood samples (approximately 0.5 mL each) were collected from each monkey on Days 1 and 7 at the following time points: predose, 30 minutes and 2, 3, 6, 12 and 24 hours post-dose. For this purpose, each monkey was bled by venipuncture and the samples were collected into tubes containing the anticoagulant, K2EDTA. Tubes were placed on wet ice until ready for processing.
Laboratory investigations (hematology, coagulation, clinical chemistry and urinalysis) were performed on all animals prior to start of treatment and prior to termination on Day 8.
A necropsy with tissue collection was conducted on all animals terminated during the study. The necropsy included examination of:
For all animals, all tissues indicated above were embedded in paraffin, sectioned and stained with hematoxylin and eosin and examined by light microscopy.

[2] = Monkey oral pharmacokinetic study; format: in vivo, cynomolgus monkeys; conditions: 0.5% MC, plasma analyte
Source text: (§1) Plasma concentration vs. time data was subjected to noncompartmental pharmacokinetic (PK) analysis.

[3] = Rat oral pharmacokinetic study; format: in vivo, Sprague Dawley rats; conditions: 0.5% MC, plasma analyte
Source text: as §1

[4] = Rat IV pharmacokinetic study; conditions: D5W, plasma analyte
[5] = Monkey IV pharmacokinetic study; conditions: Compound W IV 5 mg/kg, D5W, plasma analyte
Procedure: Animals had free access to food and water before and after dosing.
Blood samples (approximately 0.25 mL each) were collected via a carotid artery catheter prior to dosing and at 0 (predose), 5 min, 10 min, 0.25, 0.5, 1, 2, 3, 4, 6, 8, 12, 24, 48 hours postdose. Each blood sample was collected into a tube that was kept on wet ice and contained potassium EDTA as the anticoagulant. Plasma was separated and stored at approximately −70° C. until analysis.
Plasma concentration vs. time data were subjected to noncompartmental pharmacokinetic (PK) analysis.

[6] = Stability of the solid forms (net increase in total impurities at 40 C/30% RH); format: physicochemical; conditions: 15 days
[7] = tested on: Staphylococcus aureus ATCC 29213; assay: microbe, parasite or virus in culture; format: cell-based; conditions: Staphylococcus aureus, ATCC29213, Staphylococcus aureus ATCC 29213; Protocol 1; read-out: MIC
M. tuberculosis H37Rv = conditions: cited from earlier work
[8] = tested on: M. tuberculosis Erdman ATCC 35801; assay: Mycobacterium tuberculosis serum shift MIC assay (Protocol 5); format: cell-based
[9] = Seven-day oral (gavage) toxicity and toxicokinetics study in rats; format: in vivo, Crl:CD(SD) rats; conditions: for Mean food consumption: Compound 13 once daily 100 or 200 mg/kg, Compound 23A twice daily 300 mg/kg, different intervals of the study, not considered adverse; for adverse observations or effects on mean body weight / dose levels without adverse toxicity within the scope of the study / NOEL (No-Observable-Effect-Level) / exposures for different dosage levels: male rats; for adverse observations or effects on mean body weight / dose levels without adverse toxicity within the scope of the study: 7 days oral gavage; for NOEL (No-Observable-Effect-Level): once a day for 7 days orally via gavage; for exposures for different dosage levels: oral gavage, toxicokinetics; for histopathological findings: any dose regimen
Source text: Crl:CD(SD) rats were obtained from Charles River Laboratories of Stone Ridge, N.Y. The animals were laboratory bred and experimentally naïve. Rats were chosen because they are a species that is commonly used for nonclinical toxicity evaluations.
Forty rats (20 noncannulated males and 20 males with jugular vein cannulas) were ordered. From these animals, 15 noncannulated males and 15 cannulated males were used. Animals were as uniform in age as possible. The rats were prepubertal to young adult, approximately 9 weeks of age at initiation of dosing. Their supplier-calculated birth date was retained in the study records. The weight range for the animals at the time of allocation to groups was 218.5-306.3 g.
Animals received the test article or vehicle by oral gavage for 7 consecutive days and were terminated the day following completion of dosing. The first day of dosing was designated as Day 1 of the study. The animals were evaluated for changes in clinical signs, body weight, and other parameters as described below.
The vehicle and test article were administered by oral gavage once daily for 7 consecutive days at a dose volume of 10 mL/kg body weight for Group A and Groups B-D, respectively. The test article and vehicle were administered by oral gavage twice daily, approximately 8 hours apart, for 7 consecutive days at a dose volume of 10 mL/kg body weight for Group E and Group F, respectively. The actual volume administered to each animal was calculated and adjusted based on the most recent body weight of each animal.
During the treatment period, daily cageside observations were made and recorded predose and postdose (following the first dose only). The postdosing observations made during treatment occurred at the following times based on Cmax/Tmax for the two compounds from previous studies:
Prior to start of dosing, body weights were measured for randomization on Day 1. During the treatment, body weights were measured on Day 1 and Day 7. In addition, fasted body weights were measured prior to necropsy for calculation of organ/body weight ratios.
Throughout the study, food consumption was measured daily starting 3 days prior to start of dosing.
Blood samples for evaluation of hematology, coagulation, and serum chemistry parameters were collected from all animals from the retro-orbital plexus (under CO2/O2 anesthesia, for the main study animals) or jugular vein cannula (for the toxicokinetic animals) prior to necropsy. Due to residual heparin used to keep the cannulas patent for the toxicokinetic animals, coagulation samples from these rats, were not able to be analyzed. The animals were fasted overnight prior to blood collection. On the day of blood collection for clinical pathology analyses, the animals were not necropsied until after the blood was collected and the samples judged to be acceptable by the clinical pathology group.
On the 1st and 7th day of dosing, blood samples (approximately 0.5 mL/sample) were collected from the jugular vein cannula for all toxicokinetic animals at the timepoints listed below into K3EDTA-containing tubes. […] Prior to each collection, a small sample of blood (with heparin blocking solution) was removed from the cannula and discarded. A new syringe was placed on the cannula, and the protocol-required sample was taken. The syringe with the blood sample was removed, and a new syringe with saline attached to the cannula. Blood volume was replaced with an equal volume of saline and then blocking solution placed in the cannula. Each animal was returned to its cage until the next collection timepoint.
For all animals euthanized at scheduled necropsies, the kidneys, liver, and prostate gland were weighed. Following weighing, an approximate 1 gram sample of liver and kidney was weighed, transferred to Precellys 7 mL CK28 Tissue Homogenizing tubes (Cat. No. 0904-01), snap-frozen, and analyzed. […]

[10] = tested on: M. tuberculosis ATCC 35801 (strain Erdman); assay: Mouse M. tuberculosis (Erdman) 28 day lung infection model; format: in vivo, M. tuberculosis; host Balb/c mice; conditions: 28 days
[11] = doses up to 200 mg/kg/day, 7 days
[12] = M. tuberculosis Erdman ATCC 35801
[13] = M. tuberculosis Erdman ATCC 35801 with Mouse Serum
[14] = rats, 300 mg/kg twice a day, compared to controls treated twice a day
[15] = Table 23a, 10 mg/kg BID oral gavage
[16] = Table 23a, 30 mg/kg BID oral gavage
[17] = Table 23a, 100 mg/kg BID oral gavage

In the case of CCNC(=O)Nc1nc2cc(-c3cnc(C(C)(C)O)nc3)c(F)c([C@H]3CCCO3)c2[nH]1 [Compound 23, 1-ethyl-3-[6-fluoro-5-[2-(1-hydroxy-1-methyl-ethyl)pyrimidin-5-yl]-7-[(2R)-tetrahydrofuran-2-yl]-1H-benzimidazol-2-yl]urea], the “clinical signs, body weights, electrocardiography, clinical pathology, organ weights” value [1, 11] is reported as “no clinical signs, or changes in body weights, electrocardiography parameters, clinical pathology parameters, or organ weights”, the “macroscopic or microscopic findings” value [1, 11] is reported as “no macroscopic or microscopic findings” and the “no observed effect level (NOEL)” value ([1]; male Cynomolgus monkeys, oral gavage once per day for 7 days) is reported as 200 mg/kg/day. The “exposures for different dosage levels” value ([1]; male Cynomolgus monkeys, oral gavage, toxicokinetics) was “dose related”, the AUCextrap ([2]; Compound W PO 30 mg/kg) was 24.8 µg·h/mL and the AUCextrap ([2]; Compound W PO 100 mg/kg) was 76.9 µg·h/mL. For the same molecule, the AUCextrap ([2]; Compound W PO 300 mg/kg) was 155 µg·h/mL, the AUCextrap ([3]; Compound W oral 3 mg/kg) was 0.314 µg·h/mL and the AUCextrap ([3]; Compound W oral 30 mg/kg) was 22.6 µg·h/mL. It also gave an AUCextrap ([3]; Compound W oral 100 mg/kg) of 77.4 µg·h/mL, an AUCextrap ([4]; Compound W IV 1 mg/kg) of 0.31 µg·h/mL and a Cl_obs ([4]; Compound W IV 1 mg/kg) of 54.9 mL/min/kg. For the same molecule, the Vss_obs ([4]; Compound W IV 1 mg/kg) was 3.8 L/kg, the t1/2 ([4]; Compound W IV 1 mg/kg) was 1.8 h and the AUCextrap ([4]; Compound W IV 5 mg/kg) was 3.06 µg·h/mL. For the same molecule, the Cl_obs ([4]; Compound W IV 5 mg/kg) was 27.3 mL/min/kg, the Vss_obs ([4]; Compound W IV 5 mg/kg) was 4.08 L/kg and the t1/2 ([4]; Compound W IV 5 mg/kg) was 3.6 h. The AUCextrap [5] was 3.81 µg·h/mL.

For CCNC(=O)Nc1nc2cc(-c3cnc(C(C)(C)OP(=O)([O-])[O-])nc3)c(F)c([C@H]3CCCO3)c2[nH]1.[Na+].[Na+] [Amorphous di-Na salt, disodium (R)-2-(5-(2-(3-ethylureido)-6-fluoro-7-(tetrahydrofuran-2-yl)-1H-benzo[d]imidazol-5-yl)pyrimidin-2-yl)propan-2-yl phosphate], the “Net % increase in total impurities” value [6] was 1.74% and the MIC [7] was 4 µg/mL.

In the case of NC(=O)c1cnccn1 [Pyrazinamide], the MIC (M. tuberculosis H37Rv; normal pH) is listed as 250 µg/mL (≈ 2030 µM) and the MIC (M. tuberculosis H37Rv; pH 6.0) is listed as 50 µg/mL (≈ 406 µM).

In the case of CCNC(=O)Nc1nc2cc(-c3cnc(C(C)(C)O)nc3)c(F)c([C@H]3CCCO3)c2[nH]1 [Compound 23A, methanesulfonic acid salt of 1-ethyl-3-[6-fluoro-5-[2-(1-hydroxy-1-methyl-ethyl)pyrimidin-5-yl]-7-[(2R)-tetrahydrofuran-2-yl]-1H-benzimidazol-2-yl]urea], the MIC [8, 12] is reported as 0.03 µg/mL, the MIC [8, 13] is reported as 0.5 µg/mL and the Mean food consumption [9] is reported as “reduced”. The “adverse observations or effects on mean body weight” value [9] was “No adverse observations or effects on mean body weight”, the “dose levels without adverse toxicity within the scope of the study” value [9] was no more than 600 mg/kg/day and the “NOEL (No-Observable-Effect-Level)” value [9] was 100 mg/kg. The “exposures for different dosage levels” value [9] was “dose related”, the AST [9, 14] was “statistically higher” and the “mean ALT” value [9, 14] was “statistically higher”. For the same molecule, the “mean calcium ion concentration (CA)” value [9, 14] was “statistically lower”, the histopathological findings ([9]; rats) was “No test article-related histopathological findings” and the “Average Lung Burden” value [10, 15] was 5.08 Log cfu/lungs. The “Log Reduction vs. Early Control” value [10, 15] was −0.10 Log, the “Log Reduction vs. Late Control” value [10, 15] was 0.13 Log and the “Average Lung Burden” value [10, 16] was 4.11 Log cfu/lungs. The “Log Reduction vs. Early Control” value [10, 16] was 0.86 Log, the “Log Reduction vs. Late Control” value [10, 16] was 1.09 Log and the “Average Lung Burden” value [10, 17] was 3.22 Log cfu/lungs. For the same molecule, the “Log Reduction vs. Early Control” value [10, 17] was 1.76 Log, the “Log Reduction vs. Late Control” value [10, 17] was 1.98 Log and the “reduction of bacterial burdens versus the early control” value ([10]; doses of 30 and 100 mg/kg) was 0.7-1.5 logs.

With COc1c(N2C[C@@H]3CCCN[C@@H]3C2)c(F)cc2c(=O)c(C(=O)O)cn(C3CC3)c12 [Moxifloxacin, reference compound] the “Average Lung Burden” value ([10]; Table 23a, 100 mg/kg QD) was 2.94 Log cfu/lungs, the “Log Reduction vs. Early Control” value ([10]; Table 23a, 100 mg/kg QD) was 2.04 Log and the “Log Reduction vs. Late Control” value ([10]; Table 23a, 100 mg/kg QD) was 2.26 Log. For the same molecule, the “Log Reduction vs. Early Control” value ([10]; Table 23b, 100 mg/kg QD) was 2.04 Log, the “Log Reduction vs. Late Control” value ([10]; Table 23b, 100 mg/kg QD) was 1.42 Log and the “Median Lung Burden” value ([10]; Table 23b, 100 mg/kg QD) was 2.94 Log cfu/lungs.

With CCNC(=O)Nc1nc2cc(-c3cnc(C(C)(C)O)nc3)cc([C@H]3CCCO3)c2[nH]1 [Compound 13, 1-ethyl-3-[5-[2-(1-hydroxy-1-methyl-ethyl)pyrimidin-5-yl]-7-[(2R)-tetrahydrofuran-2-yl]-1H-benzimidazol-2-yl]urea] the MIC [8, 12] was 0.045 µg/mL, the MIC [8, 13] was 2 µg/mL and the Mean food consumption [9] was “reduced”. For the same molecule, the “adverse observations or effects on mean body weight” value [9] was “No adverse observations or effects on mean body weight”, the “dose levels without adverse toxicity within the scope of the study” value [9] was “up to 200 mg/kg/day” and the “NOEL (No-Observable-Effect-Level)” value [9] was 200 mg/kg. The “exposures for different dosage levels” value [9] was “dose related” and the histopathological findings ([9]; rats) was “No test article-related histopathological findings”.
